Results as given in patent publication US20070098649A1, “Method and composition for controlling oral pathogens” (priority 2004, published 2007).
Counter-ions that a name gives are not always drawn. Like-named read-outs stand apart in the source and are kept apart here. Marks after values point to notes of the source that are not given here.

Columns and labels:
Porphymonas gingivalis [1] = assay: Combination determination (FIC, MIC in combination); type: cell-based; conditions: P. gingivalis; berberine (B-CG) combined with CHX, Tet or Dox; MIC of the named agent in the combination
Description: (§1) The alkaloids were tested in pair-wise combinations (fractional inhibitory concentrations, FIC) against all the bacteria to determine whether interactions were antagonistic (FIC>1), additive (0.5<FIC<1), or synergistic (FIC<0.5). The FIC was calculated by the following: (MIC Acombination/MIC Aalone)+(MIC Bcombination/MIC Balone). Where A represents compound 1 and B represents compound 2. […] In the case of A. actinomycetemcomitans and P. aeruginosa, CHX was used at 0.78 to 50 μg ml^−1. Berberine (B-CG and B-S) was used at concentrations 0.9 to 250 μg ml^−1. The antibacterial efficacy of berberine (1.95 to 500 μg ml^−1) was tested in combination against P. aeruginosa with CHX (0.78 to 50 μg ml^−1) (Sigma Chemicals) and the polymyxin antibiotic Col (0.04 to 25 μg ml^−1) (Sigma Chemicals). The plates were incubated for 24 hours.

Pseudomonas aeruginosa [2] = assay: as above; type: cell-based; conditions: P. aeruginosa; berberine combined with CHX or Col; MIC of the named agent in the combination
Description: as §1

[3] = tested on: Actinobacillus actinomycetemcomitans; assay: as above; type: cell-based; conditions: A. actinomycetemcomitans grown under anaerobic conditions; berberine (B-CG) combined with CHX, Tet or Dox; MIC of the named agent in the combination
Description: as §1

Streptococcus gordonii [4] = assay: as above; type: cell-based; conditions: S. gordonii; berberine (B-CG) combined with CHX, Tet or Dox; MIC of the named agent in the combination
Description: as §1

Staphylococcus aureus [5] = assay: as above; type: cell-based; conditions: S. aureus; berberine (B-CG) combined with CHX, Tet or Dox; MIC of the named agent in the combination
Description: as §1

Fusobacterium nucleatum [6] = assay: as above; type: cell-based; conditions: F. nucleatum; berberine (B-CG) combined with CHX, Tet or Dox; MIC of the named agent in the combination
Description: as §1

Escherichia coli [7] = assay: as above; type: cell-based; conditions: E. coli; berberine (B-CG) combined with CHX, Tet or Dox; MIC of the named agent in the combination
Description: as §1

Fusobacterium nucleatum [8] = assay: MIC microdilution assay; type: cell-based; conditions: Fusobacterium nucleatum, F. nucleatum
Streptococcus mutans [9] = assay: MIC microdilution assay; type: cell-based; conditions: Streptococcus mutans, S. mutans
Streptococcus gordonii [10] = assay: MIC microdilution assay; type: cell-based; conditions: Streptococcus gordonii, S. gordonii
Pseudomonas aeruginosa [11] = assay: MIC microdilution assay; type: cell-based; conditions: Pseudomonas aeruginosa; P. aeruginosa; agent alone; read-out: MIC of the antimicrobial agents alone
Escherichia coli [12] = assay: MIC microdilution assay; type: cell-based; conditions: E. coli, agent alone, read-out: MIC of the antimicrobial agents alone
Staphylococcus aureus [13] = assay: MIC microdilution assay; type: cell-based; conditions: S. aureus, agent alone, read-out: MIC of the antimicrobial agents alone
rabbits = conditions: s.c.; cited from earlier work
mice [14] = conditions: cited from earlier work; for LD50: mice
[15] = rat, in vivo, iv; cited from earlier work
Streptococcus mutans [16] = assay: Combination determination (FIC, MIC in combination); type: cell-based; conditions: S. mutans
Description: as §1
CHX was diluted from left to right at 10 to 0.08 μg ml^−1 ([…] 1 to 8), berberine was diluted from top to bottom at 250 to 0.09 μg ml^−1 ([…] 1 to 8). Column 9 was the cell control, column 10 was berberine alone (250 to 0.09 μg ml^−1); and column 11 was CHX alone (10 to 0.08 μg ml^−1). Row H was the solvent control (8% DMSO, H1 to H8). Column 12 was the media blank. The dilution assay was designed such that A1 contained the highest concentration of both agents (berberine 250 μg ml^−1 and CHX 10 μg ml^−1). The final concentration of berberine in wells A2 to A8 was […]. The FIC value was calculated from well C6. FIC was calculated by: (MIC Acombination/MIC Aalone)+(MIC Bcombination/MIC Balone).

[17] = in vivo, po; cited from earlier work
[18] = tested on: Actinobacillus actinomycetemcomitans; assay: MIC microdilution assay; type: cell-based; conditions: Aggregatibacter actinomycetemcomitans
Porphymonas gingivalis [19] = assay: MIC microdilution assay; type: cell-based; conditions: Porphyromonas gingivalis, P. gingivalis
[20] = tested on: patients with heart conditions; conditions: human, in vivo; cited from earlier work
rats [21] = conditions: intravenous 0.1-6.0 mg/kg; cited from earlier work
rats [22] = conditions: single intraintestinal injection 10 mg/kg into the duodenum; cited from earlier work
cats = conditions: intravenous 0.1-6.0 mg/kg; cited from earlier work
albino rats = conditions: i.p. 50 mg/kg; cited from earlier work
dogs [23] = conditions: intravenous 0.1-6.0 mg/kg; cited from earlier work
S. pyogenes = conditions: at sub-MIC levels; cited from earlier work
dogs [24] = conditions: dog, in vivo; cited from earlier work
mice [25] = conditions: 15 mg/kg i.p.; cited from earlier work
[26] = agent alone, read-out: MIC of the antimicrobial agents alone

Structure (SMILES): COc1ccc2cc3[n+](cc2c1OC)CCc1cc2c(cc1-3)OCO2 [Berberine, 5,6-dihydro-9,10-dimethoxybenzo[g]-1,3-benzodioxolo[5,6-a]quinolizinium]
- MIC of the antimicrobial agents in combination (Porphymonas gingivalis [1]): 7.81 µg/mL
- MIC of the antimicrobial agents in combination (Pseudomonas aeruginosa [2]): 250** μg ml^−1
- MIC of the antimicrobial agents in combination [3]: 250 µg/mL
- MIC of the antimicrobial agents in combination (Streptococcus gordonii [4]): 62.5 µg/mL
- MIC of the antimicrobial agents in combination (Staphylococcus aureus [5]): 62.5 µg/mL
- MIC of the antimicrobial agents in combination (Fusobacterium nucleatum [6]): 3.9 µg/mL
- MIC of the antimicrobial agents in combination (Escherichia coli [7]): 125 µg/mL
- MIC (Fusobacterium nucleatum [8]; [26]): 15.6 µg/mL
- MIC (Fusobacterium nucleatum [8]; Fn, read-out: MIC of Goldenseal Alkaloids Against Selected Oral Pathogens): 15.6 µg/mL
- MIC (Streptococcus mutans [9]; [26]): 125 µg/mL
- MIC (Streptococcus mutans [9]; Sm, read-out: MIC of Goldenseal Alkaloids Against Selected Oral Pathogens): 125 µg/mL
- MIC (Streptococcus gordonii [10]; [26]): 250 µg/mL
- MIC (Streptococcus gordonii [10]; Sg, read-out: MIC of Goldenseal Alkaloids Against Selected Oral Pathogens): 250 µg/mL
- MIC (Pseudomonas aeruginosa [11]): > 500 µg/mL
- MIC (Escherichia coli [12]): 250 µg/mL
- MIC (Staphylococcus aureus [13]): 250 µg/mL
- LD50 (rabbits): 100 mg/kg
- LD50 (mice [14]; oral): 329 mg/kg
- LD50 (mice [14]; s.c.): 18 mg/kg
- LD dose (mice [14]; mouse, in vivo, ip): greater than 500 mg/kg
- Tissue distribution [15]: highest concentrations of berberine were found in the kidneys
- MIC of the antimicrobial agents in combination (Streptococcus mutans [16]; berberine (B-CG) combined with CHX, Tet or Dox, MIC of the named agent in the combination): 62.5 µg/mL
- MIC alone used for the FIC (Streptococcus mutans [16]; same plate, 48 h): 125 µg/mL
- MIC in combination used for the FIC (Streptococcus mutans [16]; well C6, berberine (B-G) with CHX, 48 h): 31.25 µg/mL
- Further time to clear [17]: four
- Time to reach peak concentrations in plasma [17]: four
- MIC ([18]; A. actinomycetemcomitans grown under anaerobic conditions, agent alone, read-out: MIC of the antimicrobial agents alone): > 500 µg/mL
- MIC ([18]; Aa, A. actinomycetemcomitans, read-out: MIC of Goldenseal Alkaloids Against Selected Oral Pathogens): > 500 µg/mL
- MIC (Porphymonas gingivalis [19]; [26]): 23.4 µg/mL
- MIC (Porphymonas gingivalis [19]; Pg, read-out: MIC of Goldenseal Alkaloids Against Selected Oral Pathogens): 15.6 µg/mL
- Adverse effect in heart failure patients [20]: ventricular tachycardia in some subjects

Structure (SMILES): COc1ccc2cc3[n+](cc2c1OC)CCc1cc2c(cc1-3)OCO2 [berberine sulfate]
- Effect on blood pressure (rats [21]): reduced the blood pressure
- Effect on the volume or acidity (rats [22]): no effect
- Effect on blood pressure (cats): reduced the blood pressure
- Effect on rectal temperature (albino rats): reduced rectal temperature
- Effect on blood pressure (dogs [23]): reduced the blood pressure
- Adherence of S. pyogenes to epithelial cells (S. pyogenes): inhibited the adherence
- Number of apomorphine-induced vomits (dogs [24]): significantly increased
- Protection from amphetamine toxicity (mice [25]): no significant effect
